ChEMBL document CHEMBL3885881, “DrugMatrix”

Species: Rattus norvegicus
Experiment: DrugMatrix - Regimen: Daily Repeat
Type: toxicity, organism-based, Sprague-Dawley
Design: regimen Daily Repeat, gender Male, age 6-8 weeks
Settings: in vivo, po, route oral GAVAGE, vehicle .5 % CMC; for ABSOLUTE BASOPHIL / BASOPHIL / EOSINOPHIL / ERYTHROCYTE COUNT / HEMATOCRIT / HEMOGLOBIN / LEUKOCYTE COUNT / LYMPHOCYTE / MEAN CORPUSCULAR HEMOGLOBIN / MEAN CORPUSCULAR HEMOGLOBIN CONCENTRATION / MEAN CORPUSCULAR VOLUME / MONOCYTE / NEUTROPHIL / PLATELET COUNT: tissue Blood; for ALANINE AMINOTRANSFERASE / ALBUMIN / ALKALINE PHOSPHATASE / ASPARTATE AMINOTRANSFERASE / BLOOD UREA NITROGEN / CHLORIDE / CHOLESTEROL / CREATINE PHOSPHOKINASE / CREATININE / GLUCOSE / PHOSPHORUS / POTASSIUM / SODIUM / TOTAL BILIRUBIN / TOTAL PROTEIN: tissue Plasma
[1] = 0 mg/kg, 72 h, dose level Control, time 3 day
[2] = 0 mg/kg, 120 h, dose level Control, time 5 day
[3] = 100 mg/kg, 72 h, dose level Low, time 3 day
[4] = 100 mg/kg, 120 h, dose level Low, time 5 day
[5] = 390 mg/kg, 72 h, dose level High, time 3 day
[6] = 390 mg/kg, 120 h, dose level High, time 5 day

Compound: CC[C@]1(O)CC[C@H]2[C@@H]3CCC4=CCCC[C@@H]4[C@H]3CC[C@@]21C
- ABSOLUTE BASOPHIL [1]: 16.7 cells/µL
- BASOPHIL [1]: 0.17%
- EOSINOPHIL [1]: 0.62%
- ERYTHROCYTE COUNT [1]: 6.55 x10E6/uL
- HEMATOCRIT [1]: 42%
- HEMOGLOBIN [1]: 13.48 G/DL
- LEUKOCYTE COUNT [1]: 8.79 x10E3/uL
- LYMPHOCYTE [1]: 76.98%
- MEAN CORPUSCULAR HEMOGLOBIN [1]: 20.57 pg
- MEAN CORPUSCULAR HEMOGLOBIN CONCENTRATION [1]: 32.08 G/DL
- MEAN CORPUSCULAR VOLUME [1]: 64.1 fL
- MONOCYTE [1]: 2.12%
- NEUTROPHIL [1]: 19%
- PLATELET COUNT [1]: 1432.17 x10E3/uL
- ALANINE AMINOTRANSFERASE [1]: 42.83 u/L
- ALBUMIN [1]: 3.63 G/DL
- ALKALINE PHOSPHATASE [1]: 328.5 u/L
- ASPARTATE AMINOTRANSFERASE [1]: 78.33 u/L
- BLOOD UREA NITROGEN [1]: 14.5 mg/dL
- CHLORIDE [1]: 104.5 MEQ/L
- CHOLESTEROL [1]: 78.67 mg/dL
- CREATINE PHOSPHOKINASE [1]: 282.33 u/L
- CREATININE [1]: 0.25 mg/dL
- GLUCOSE [1]: 173.67 mg/dL
- PHOSPHORUS [1]: 12.83 mg/dL
- POTASSIUM [1]: 6.7 MEQ/L
- SODIUM [1]: 145.83 MEQ/L
- TOTAL BILIRUBIN [1]: 0.4 mg/dL
- TOTAL PROTEIN [1]: 5.93 G/DL
- ABSOLUTE BASOPHIL [2]: 28 cells/µL
- BASOPHIL [2]: 0.26%
- EOSINOPHIL [2]: 0.44%
- ERYTHROCYTE COUNT [2]: 6.99 x10E6/uL
- HEMATOCRIT [2]: 45.12%
- HEMOGLOBIN [2]: 14.26 G/DL
- LEUKOCYTE COUNT [2]: 9.42 x10E3/uL
- LYMPHOCYTE [2]: 79.92%
- MEAN CORPUSCULAR HEMOGLOBIN [2]: 20.44 pg
- MEAN CORPUSCULAR HEMOGLOBIN CONCENTRATION [2]: 31.62 G/DL
- MEAN CORPUSCULAR VOLUME [2]: 64.6 fL
- MONOCYTE [2]: 2.2%
- NEUTROPHIL [2]: 16.14%
- PLATELET COUNT [2]: 1062.2 x10E3/uL
- ALANINE AMINOTRANSFERASE [2]: 44 u/L
- ALBUMIN [2]: 3.73 G/DL
- ALKALINE PHOSPHATASE [2]: 342.6 u/L
- ASPARTATE AMINOTRANSFERASE [2]: 74.17 u/L
- BLOOD UREA NITROGEN [2]: 13 mg/dL
- CHLORIDE [2]: 103 MEQ/L
- CHOLESTEROL [2]: 72.83 mg/dL
- CREATINE PHOSPHOKINASE [2]: 184.67 u/L
- CREATININE [2]: 0.47 mg/dL
- GLUCOSE [2]: 168.17 mg/dL
- PHOSPHORUS [2]: 12.27 mg/dL
- POTASSIUM [2]: 6.98 MEQ/L
- SODIUM [2]: 147 MEQ/L
- TOTAL BILIRUBIN [2]: 0.65 mg/dL
- TOTAL PROTEIN [2]: 6.23 G/DL
- ABSOLUTE BASOPHIL [3]: 23.3 cells/µL
- BASOPHIL [3]: 0.23%
- EOSINOPHIL [3]: 0.63%
- ERYTHROCYTE COUNT [3]: 7.14 x10E6/uL
- HEMATOCRIT [3]: 43.57%
- HEMOGLOBIN [3]: 14.03 G/DL
- LEUKOCYTE COUNT [3]: 12.51 x10E3/uL
- LYMPHOCYTE [3]: 79.1%
- MEAN CORPUSCULAR HEMOGLOBIN [3]: 19.63 pg
- MEAN CORPUSCULAR HEMOGLOBIN CONCENTRATION [3]: 32.2 G/DL
- MEAN CORPUSCULAR VOLUME [3]: 61 fL
- MONOCYTE [3]: 2.57%
- NEUTROPHIL [3]: 16.13%
- PLATELET COUNT [3]: 1395 x10E3/uL
- ALANINE AMINOTRANSFERASE [3]: 38 u/L
- ALBUMIN [3]: 3.67 G/DL
- ALKALINE PHOSPHATASE [3]: 426 u/L
- ASPARTATE AMINOTRANSFERASE [3]: 66.33 u/L
- BLOOD UREA NITROGEN [3]: 10.33 mg/dL
- CHLORIDE [3]: 103.33 MEQ/L
- CHOLESTEROL [3]: 51 mg/dL
- CREATINE PHOSPHOKINASE [3]: 235.33 u/L
- CREATININE [3]: 0.33 mg/dL
- GLUCOSE [3]: 164.33 mg/dL
- PHOSPHORUS [3]: 12.4 mg/dL
- POTASSIUM [3]: 6.67 MEQ/L
- SODIUM [3]: 145 MEQ/L
- TOTAL BILIRUBIN [3]: 0.47 mg/dL
- TOTAL PROTEIN [3]: 6 G/DL
- ABSOLUTE BASOPHIL [4]: 56.7 cells/µL
- BASOPHIL [4]: 0.47%
- EOSINOPHIL [4]: 0.23%
- ERYTHROCYTE COUNT [4]: 6.95 x10E6/uL
- HEMATOCRIT [4]: 44.83%
- HEMOGLOBIN [4]: 14.17 G/DL
- LEUKOCYTE COUNT [4]: 12.16 x10E3/uL
- LYMPHOCYTE [4]: 86.2%
- MEAN CORPUSCULAR HEMOGLOBIN [4]: 20.37 pg
- MEAN CORPUSCULAR HEMOGLOBIN CONCENTRATION [4]: 31.6 G/DL
- MEAN CORPUSCULAR VOLUME [4]: 64.47 fL
- MONOCYTE [4]: 2%
- NEUTROPHIL [4]: 10.03%
- PLATELET COUNT [4]: 1290.67 x10E3/uL
- ALANINE AMINOTRANSFERASE [4]: 38.67 u/L
- ALBUMIN [4]: 3.67 G/DL
- ALKALINE PHOSPHATASE [4]: 360 u/L
- ASPARTATE AMINOTRANSFERASE [4]: 55 u/L
- BLOOD UREA NITROGEN [4]: 10.67 mg/dL
- CHLORIDE [4]: 99 MEQ/L
- CHOLESTEROL [4]: 42 mg/dL
- CREATINE PHOSPHOKINASE [4]: 164 u/L
- CREATININE [4]: 0.2 mg/dL
- GLUCOSE [4]: 173.33 mg/dL
- PHOSPHORUS [4]: 12.6 mg/dL
- POTASSIUM [4]: 7.33 MEQ/L
- SODIUM [4]: 147 MEQ/L
- TOTAL BILIRUBIN [4]: 0.33 mg/dL
- TOTAL PROTEIN [4]: 6.1 G/DL
- ABSOLUTE BASOPHIL [5]: 36.7 cells/µL
- BASOPHIL [5]: 0.27%
- EOSINOPHIL [5]: 0.43%
- ERYTHROCYTE COUNT [5]: 7 x10E6/uL
- HEMATOCRIT [5]: 42.77%
- HEMOGLOBIN [5]: 14.3 G/DL
- LEUKOCYTE COUNT [5]: 13.01 x10E3/uL
- LYMPHOCYTE [5]: 77.23%
- MEAN CORPUSCULAR HEMOGLOBIN [5]: 20.43 pg
- MEAN CORPUSCULAR HEMOGLOBIN CONCENTRATION [5]: 33.43 G/DL
- MEAN CORPUSCULAR VOLUME [5]: 61.2 fL
- MONOCYTE [5]: 2.47%
- NEUTROPHIL [5]: 18%
- PLATELET COUNT [5]: 1291 x10E3/uL
- ALANINE AMINOTRANSFERASE [5]: 42.67 u/L
- ALBUMIN [5]: 3.6 G/DL
- ALKALINE PHOSPHATASE [5]: 336.67 u/L
- ASPARTATE AMINOTRANSFERASE [5]: 63.33 u/L
- BLOOD UREA NITROGEN [5]: 11.33 mg/dL
- CHLORIDE [5]: 102.33 MEQ/L
- CHOLESTEROL [5]: 36.33 mg/dL
- CREATINE PHOSPHOKINASE [5]: 193 u/L
- CREATININE [5]: 0.4 mg/dL
- GLUCOSE [5]: 166 mg/dL
- PHOSPHORUS [5]: 11.2 mg/dL
- POTASSIUM [5]: 6.37 MEQ/L
- SODIUM [5]: 145.67 MEQ/L
- TOTAL BILIRUBIN [5]: 0.63 mg/dL
- TOTAL PROTEIN [5]: 5.87 G/DL
- ABSOLUTE BASOPHIL [6]: 200 cells/µL
- BASOPHIL [6]: 1.57%
- EOSINOPHIL [6]: 0.97%
- ERYTHROCYTE COUNT [6]: 8.29 x10E6/uL
- HEMATOCRIT [6]: 52.23%
- HEMOGLOBIN [6]: 16.3 G/DL
- LEUKOCYTE COUNT [6]: 13.36 x10E3/uL
- LYMPHOCYTE [6]: 79.5%
- MEAN CORPUSCULAR HEMOGLOBIN [6]: 19.77 pg
- MEAN CORPUSCULAR HEMOGLOBIN CONCENTRATION [6]: 31.27 G/DL
- MEAN CORPUSCULAR VOLUME [6]: 63.17 fL
- MONOCYTE [6]: 1.77%
- NEUTROPHIL [6]: 14.97%
- PLATELET COUNT [6]: 1359.67 x10E3/uL
- ALANINE AMINOTRANSFERASE [6]: 31 u/L
- ALBUMIN [6]: 4.13 G/DL
- ALKALINE PHOSPHATASE [6]: 287.67 u/L
- ASPARTATE AMINOTRANSFERASE [6]: 54.67 u/L
- BLOOD UREA NITROGEN [6]: 14 mg/dL
- CHLORIDE [6]: 104.33 MEQ/L
- CHOLESTEROL [6]: 60 mg/dL
- CREATINE PHOSPHOKINASE [6]: 166 u/L
- CREATININE [6]: 0.37 mg/dL
- GLUCOSE [6]: 151.33 mg/dL
- PHOSPHORUS [6]: 11.3 mg/dL
- POTASSIUM [6]: 7 MEQ/L
- SODIUM [6]: 155 MEQ/L
- TOTAL BILIRUBIN [6]: 0.4 mg/dL
- TOTAL PROTEIN [6]: 7.07 G/DL
